Several values for one entry are separate records, joined by “and”; a condition that tells them apart may be missing. Equal values may be shown once. Inconclusive results and toxic doses are left out. The calls were made as follows: active = survival T/C of 150% or more; inactive = T/C below 125% in these data. Square brackets hold non-standard residues; d marks the D form. Peptide text beside a SMILES is read from it. ξ: configuration not given here. ξR = N=C(N)NCCCC(N)C(=O)O
System: P388 leukemia ip, CD2F1 mice, survival T/C
Test: NCI In Vivo Anticancer Drug Screen. Data for tumor model P388 Leukemia (intraperitoneal) in CD2F1 (CDF1) mice
Settings: endpoint: median survival time, higher = longer survival
Outline: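 Mice carrying the transplanted tumor received test compound or vehicle. Survival was recorded in each group, and the value is the treated-group measurement divided by that of the vehicle-treated control group.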

[1] = dose: 100.0 mg/kg/injection, schedule: Q01DX009 (ip), vehicle: saline
[2] = dose: 200.0 mg/kg/injection, schedule: Q01DX009 (ip), vehicle: saline
[3] = dose: 60.0 mg/kg/injection, schedule: Q01DX005 (ip), vehicle: saline
[4] = dose: 120.0 mg/kg/injection, schedule: Q01DX005 (ip), vehicle: saline
[5] = dose: 50.0 mg/kg/injection, schedule: Q01DX009 (ip), vehicle: Klucel (hydroxypropylcellulose) (HPC)
[6] = dose: 100.0 mg/kg/injection, schedule: Q01DX009 (ip), vehicle: Klucel (hydroxypropylcellulose) (HPC)
[7] = dose: 6.25 mg/kg/injection, schedule: Q01DX009 (ip), vehicle: water
[8] = dose: 12.5 mg/kg/injection, schedule: Q01DX009 (ip), vehicle: water
[9] = dose: 25.0 mg/kg/injection, schedule: Q01DX009 (ip), vehicle: water
[10] = dose: 50.0 mg/kg/injection, schedule: Q01DX009 (ip), vehicle: water
[11] = dose: 6.25 mg/kg/injection, schedule: Q01DX009 (ip), vehicle: saline
[12] = dose: 12.5 mg/kg/injection, schedule: Q01DX009 (ip), vehicle: saline
[13] = dose: 50.0 mg/kg/injection, schedule: Q01DX005 (ip), vehicle: Klucel (hydroxypropylcellulose) (HPC)
[14] = dose: 100.0 mg/kg/injection, schedule: Q01DX005 (ip), vehicle: Klucel (hydroxypropylcellulose) (HPC)
[15] = dose: 50.0 mg/kg/injection, schedule: Q01DX009 (ip), vehicle: saline with Tween-80
[16] = dose: 100.0 mg/kg/injection, schedule: Q01DX009 (ip), vehicle: saline with Tween-80
[17] = dose: 200.0 mg/kg/injection, schedule: Q01DX005 (ip), vehicle: Klucel (hydroxypropylcellulose) (HPC)
[18] = dose: 200.0 mg/kg/injection, schedule: Q01DX009 (ip), vehicle: Klucel (hydroxypropylcellulose) (HPC)
[19] = dose: 50.0 mg/kg/injection, schedule: Q01DX005 (ip), vehicle: saline with Tween-80
[20] = dose: 100.0 mg/kg/injection, schedule: Q01DX005 (ip), vehicle: saline with Tween-80
[21] = dose: 200.0 mg/kg/injection, schedule: Q01DX005 (ip), vehicle: saline with Tween-80

Measured: T/C

O=C(O)CCCCCCCCCCNC(=O)Nc1cccc(C(F)(F)F)c1
inactive: dose: 25.0 mg/kg/injection, schedule: Q01DX009 (ip), vehicle: saline 88 % of control | dose: 50.0 mg/kg/injection, schedule: Q01DX009 (ip), vehicle: saline 98 % of control | [1] 104 % of control | [2] 111 % of control

CN1CCC/C1=C/C(=O)c1ccccc1[N+](=O)[O-]
inactive: dose: 100.0 mg/kg/injection, schedule: Q04DX002 (ip), vehicle: Klucel (hydroxypropylcellulose) (HPC) 102 % of control | dose: 200.0 mg/kg/injection, schedule: Q04DX002 (ip), vehicle: Klucel (hydroxypropylcellulose) (HPC) 99 % of control | dose: 400.0 mg/kg/injection, schedule: Q04DX002 (ip), vehicle: Klucel (hydroxypropylcellulose) (HPC) 100 % of control

Nc1ccc(S(=O)O)cc1
inactive: dose: 100.0 mg/kg/injection, schedule: Q04DX003 (ip), vehicle: saline with Tween-80 100 % of control | dose: 200.0 mg/kg/injection, schedule: Q04DX003 (ip), vehicle: saline with Tween-80 100 % of control | dose: 400.0 mg/kg/injection, schedule: Q04DX003 (ip), vehicle: saline with Tween-80 100 % of control

CCN(CC)CC1(C)NN=C2C(n3cccc3)=CC=CN21 (stereo unspecified)
inactive: [3] 104 % of control | [4] 100 % of control

CCCCCCSc1nc2ccc(NC(C)=O)cc2s1
inactive: [5] 107 % of control | [6] 90 % of control

COc1ccc(CCNCCc2ccc(OC)c(OC)c2)cc1OC
inactive: [7] 96 % of control | [8] 108 % of control | [9] 100 % of control | [10] 100 % of control | dose: 100.0 mg/kg/injection, schedule: Q01DX009 (ip), vehicle: water 90 % of control

COc1ccc(C2C3CCN2CC3)cc1 (stereo unspecified)
inactive: [11] 111 % of control | [12] 109 % of control

O=C1c2[nH]cnc2N(Cc2ccc(Cl)cc2)C2=NCCN12
inactive: [13] 102 % of control | [14] 100 % of control

NC(=O)c1ccccc1OC(=O)NCCO
inactive: [15] 106 % of control | [16] 95 % of control | dose: 200.0 mg/kg/injection, schedule: Q01DX009 (ip), vehicle: saline with Tween-80 100 % of control

CC(=O)NCc1ccc(N2C(N)=NC(N)=NC2(C)C)cc1
inactive: dose: 25.0 mg/kg/injection, schedule: Q04DX002 (ip), vehicle: saline 100 % of control | dose: 50.0 mg/kg/injection, schedule: Q04DX002 (ip), vehicle: saline 116 % of control | dose: 100.0 mg/kg/injection, schedule: Q04DX002 (ip), vehicle: saline 100 % of control

CC(=O)Nc1c(O)c2ccccc2c2ccccc12
inactive: [13] 87 % of control | [14] 92 % of control | [17] 86 % of control

C=C(C(=O)OC)C1C=CC2OC(C)(C)OCC2O1 (stereo unspecified)
inactive: [3] 113 % of control | [4] 106 % of control | dose: 240.0 mg/kg/injection, schedule: Q01DX005 (ip), vehicle: saline 109 % of control

CN(C)CCSc1cccc2c1C(=O)c1cccc(SCCN(C)C)c1C2=O
inactive: dose: 0.78 mg/kg/injection, schedule: Q01DX009 (ip), vehicle: saline 89 % of control | dose: 1.56 mg/kg/injection, schedule: Q01DX009 (ip), vehicle: saline 90 % of control | dose: 3.13 mg/kg/injection, schedule: Q01DX009 (ip), vehicle: saline 98 % of control | dose: 3.13 mg/kg/injection, schedule: Q01DX009 (ip), vehicle: water 105 % of control and 98 % of control | [11] 86 % of control | [7] 99 % of control and 100 % of control | [12] 121 % of control | [8] 101 % of control and 90 % of control | [9] 100 % of control and 92 % of control | [10] 90 % of control

COC(=O)c1c2ccccc2cn1C
inactive: dose: 100.0 mg/kg/injection, schedule: Q04DX002 (ip), vehicle: saline with Tween-80 100 % of control | dose: 200.0 mg/kg/injection, schedule: Q04DX002 (ip), vehicle: saline with Tween-80 102 % of control

CC1C(=O)OC2C1CCC1(C)C=CC(=O)C(C)C21 (stereo unspecified)
inactive: dose: 12.5 mg/kg/injection, schedule: Q04DX002 (ip), vehicle: saline with Tween-80 110 % of control | dose: 25.0 mg/kg/injection, schedule: Q04DX002 (ip), vehicle: saline with Tween-80 103 % of control

CSC(=S)n1nc(-c2ccccc2)c(N=Nc2ccccc2[N+](=O)[O-])c1C
inactive: dose: 100.0 mg/kg/injection, schedule: Q01DX001 (ip), vehicle: Klucel (hydroxypropylcellulose) (HPC) 98 % of control | dose: 200.0 mg/kg/injection, schedule: Q01DX001 (ip), vehicle: Klucel (hydroxypropylcellulose) (HPC) 102 % of control | dose: 400.0 mg/kg/injection, schedule: Q01DX001 (ip), vehicle: Klucel (hydroxypropylcellulose) (HPC) 103 % of control

COc1c(C)n(CCCCCCn2ccc(=O)c(OC)c2C)ccc1=O
inactive: [13] 92 % of control | [14] 108 % of control | [17] 93 % of control

Clc1ccc(-c2csc(NCC3CCCO3)n2)cc1 (stereo unspecified)
inactive: [5] 100 % of control | [6] 108 % of control | [18] 100 % of control

Cn1cccc1C1NC(=O)C(c2cccn2C)NC1=O (stereo unspecified)
inactive: [13] 95 % of control | [14] 96 % of control | [17] 92 % of control

CCCCN1C=C(C)N(CCCC)CC1
inactive: dose: 12.5 mg/kg/injection, schedule: Q01DX005 (ip), vehicle: saline with Tween-80 109 % of control | dose: 25.0 mg/kg/injection, schedule: Q01DX005 (ip), vehicle: saline with Tween-80 114 % of control | [19] 121 % of control and 123 % of control | [20] 116 % of control

CCOP(=O)(CCCCN1C(=O)c2ccccc2C1=O)OCC
inactive: [1] 100 % of control | [2] 100 % of control | dose: 400.0 mg/kg/injection, schedule: Q01DX009 (ip), vehicle: saline 100 % of control

N.O=S(=O)(O)O.[Al]
inactive: [15] 100 % of control | [16] 100 % of control

NC(N)=NCCCC(N)C(=O)NCC(=O)NCC(=O)O (stereo not drawn) (H-[ξR]-Gly-Gly-OH)
inactive: dose: 50.0 mg/kg/injection, schedule: Q01DX005 (ip), vehicle: saline 98 % of control | dose: 100.0 mg/kg/injection, schedule: Q01DX005 (ip), vehicle: saline 96 % of control | dose: 200.0 mg/kg/injection, schedule: Q01DX005 (ip), vehicle: saline 98 % of control

Cn1c2c(c(=O)n(C)c1=O)CN(Cc1ccccc1)CN2
inactive: [19] 95 % of control | [20] 95 % of control | [21] 100 % of control

CC(C)(C)N=C(c1ccccc1)N1CCCCC1
inactive: [15] 100 % of control | [16] 90 % of control

S=c1[nH]c2ccccc2c2ccccc12
inactive: dose: 25.0 mg/kg/injection, schedule: Q01DX009 (ip), vehicle: Klucel (hydroxypropylcellulose) (HPC) 100 % of control | [5] 100 % of control | [6] 88 % of control | [18] 92 % of control

CCCOC(CN(C)C)C(Cl)(Cl)Cl (stereo unspecified)
inactive: [5] 101 % of control | [6] 104 % of control | [18] 100 % of control

CC(=O)N1C(=O)CC23c4ccccc4C(=O)N2CCCN13 (stereo unspecified)
inactive: [19] 99 % of control | [20] 106 % of control | [21] 99 % of control

C=CCOc1ccc(-c2ccccc2)cc1Br
inactive: [13] 108 % of control | [14] 102 % of control | [17] 100 % of control
